The results in this text go back to patent US20150185241A1, “Tilidine Immunodetection” (Randox Laboratories Limited, priority 2013, published 2015).

Counter-ions that a name gives are not always drawn.

For experiment [1], the system named is tilidine-specific antibody raised from Immunogen-II. Kind of experiment: Competitive ELISA (Example 7): Ig fraction of antiserum raised to Immunogen II, hapten-HRP conjugate of Example 6 as detecting agent. In kind it is binding. The method, then: (§1) The wells of an enhanced binding 96 well polystyrene microtitre plate were coated with the Ig fraction of the antiserum raised to Immunogen II (N-(carboxypropyl)nortilidine-BTG—example 5), diluted in 10 mMTris, pH 8.5 (125 μl/well). The appropriate antibody coating dilution was determined using standard ELISA checkerboard techniques. The plate was incubated for 2 hours at 37° C., washed 4 times over 10 minutes with Tris buffered saline, containing Tween 20 (TBST) and tapped dry. Standard solutions of tilidine hydrochloride (a mixture of the two trans isomers—the 1R, 2S and the 1S, 2R trans isomers) and nortilidine hydrochloride (a mixture of the two trans isomers—the 1R, 2S and the 1S, 2R trans isomers) were prepared in TBST at 0, 0.625 ng/ml, 1.25 ng/ml, 2.5 ng/ml, 5 ng/ml, 10 ng/ml, 20 ng/ml and 40 ng/ml and 50 μl of each was added to the appropriate wells. 75 μl of conjugate of example 6 (hapten-HRP), diluted in Tris buffer (pH7.2) containing EDTA, D-mannitol, sucrose, thimerosal and BSA was added to each of the wells. The appropriate dilution of conjugate was also determined using standard ELISA checkerboard techniques. The plate was incubated at 25° C. for 1 hour. Excess unbound conjugate was removed by washing 6 times over a 10-15 minute period with TBST. 125 μl of tetramethylbenzidine (TMB) substrate solution was added to each well of the plate that was then incubated for 20 minutes in the dark at room temperature. The reaction was terminated by the addition of 125 μl of 0.2M H2SO4 to each well. The absorbance was then measured at 450 nm using a microtitre plate reader.
For orientation: ELISA stands for enzyme-linked immunosorbent assay.

Experiment [2] shares this test system. Kind of experiment: Competitive ELISA (Example 8): different Ig fraction of antiserum raised to Immunogen II, hapten-HRP conjugate of Example 6 as detecting agent. Type of experiment: binding. Conditions: for % cross-reactivity: relative to tilidine HCl = 100; for % cross-reactivity / IC50: different Ig fraction (Example 8); for IC50: standard concentration which produces 50% B/Bo. As to the method: as §1, with “with a different” for “with the”, “fraction (to that exemplified in Example 7)” for “fraction”, “and bisnortilidine” for “and nortilidine”, “0, 0.313 ng/ml,” for “0,”, “10” for “10 ng/ml, 20”, “and 20” for “and 40”

A word on the IC50: it is the concentration at which inhibition is half-maximal. On to `CCOC(=O)[C@]1(c2ccccc2)CCC=C[C@H]1N(C)C` (racemic) [Tilidine HCl, (±)-trans-ethyl 2-(N,N-dimethylamino)-1-phenylcyclohex-3-enylcarboxylate], for which the “% cross-reactivity” value is listed as 100% in experiment [1] (relative to tilidine HCl = 100, Ig fraction of Example 7) and 100% in experiment [2]. The “% B/Bo” value in experiment [1] (standard 0.625 ng/ml) was 63%; in experiment [1] (standard 1.250 ng/ml), 55%; in experiment [1] (standard 2.500 ng/ml) it was 46%; in experiment [1] (standard 5.000 ng/ml) it was 37%; in experiment [1] (standard 10.000 ng/ml) it was 28%; in experiment [1] (standard 20.000 ng/ml), 20%. Besides, the “% B/Bo” value in experiment [1] (standard 40.000 ng/ml) was 14%; in experiment [2] (standard 0.313 ng/ml), 70%; in experiment [2] (standard 0.625 ng/ml), 63%; in experiment [2] (standard 1.250 ng/ml) it was 52%; in experiment [2] (standard 2.500 ng/ml) it was 41%; in experiment [2] (standard 5.000 ng/ml) it was 31%. The “% B/Bo” value in experiment [2] (standard 10.000 ng/ml) came out at 21%; in experiment [2] (standard 20.000 ng/ml) it was 14%. For the same molecule, the IC50 in experiment [1] (standard concentration which produces 50% B/Bo, Ig fraction of Example 7) worked out at 1.820 ng/mL; in experiment [2], 1.473 ng/mL.

For “(±)-trans-ethyl 2-amino-1-phenylcyclohex-3-enylcarboxylate [Bisnortilidine HCl]”, the “% cross-reactivity” value in experiment [2] worked out at 14.73%. The “% B/Bo” value is given as 86% in experiment [2] (standard 0.313 ng/ml); 82% in experiment [2] (standard 0.625 ng/ml); 76% in experiment [2] (standard 1.250 ng/ml); 68% in experiment [2] (standard 2.500 ng/ml); 59% in experiment [2] (standard 5.000 ng/ml); 50% in experiment [2] (standard 10.000 ng/ml). In addition, the “% B/Bo” value in experiment [2] (standard 20.000 ng/ml) came to 39%. The IC50 in experiment [2] turned out to be 10.0 ng/mL.
